# Experimental data reported in patent US6066628A, “Non-iron metalloporphyrins and methods of use” (Emory University, priority 1998, dated 2000).
# Read-outs that look alike come from different tables or passages of the source.
# Columns and labels:
# [1] = system: K. oxytoca; test: Disc diffusion sensitivity test; format: cell-based, Klebsiella oxytoca
# [2] = system: C. freundii; test: Disc diffusion sensitivity test; format: cell-based, Citrobacter freundii
# [3] = system: E. aerogenes; test: Disc diffusion sensitivity test; format: cell-based, Enterobacter aerogenes
# [4] = system: B. subtilis; test: Disc diffusion sensitivity test; format: cell-based, Bacillus subtilis; conditions: B. subtilis; disc ~50 μg MP
# [5] = system: M. smegmatis; test: Disc diffusion sensitivity test; format: cell-based, Mycobacterium smegmatis; conditions: disc ~50 μg MP
# [6] = system: M. bovis; format: cell-based, Mycobacterium bovis; conditions: disc ~50 μg MP
# [7] = system: M tuber. H37Rv; test: Disc diffusion sensitivity test; format: cell-based, Mycobacterium tuberculosis; conditions: disc ~50 μg MP
# [8] = system: M tuber. H37Pa; test: Disc diffusion sensitivity test; format: cell-based, Mycobacterium tuberculosis; conditions: disc ~50 μg MP
# [9] = system: Y. enterocolitica; test: microbe, parasite or virus in culture; format: cell-based
# [10] = system: Bacillus subtilis; test: Minimal inhibitory concentration; format: cell-based
# [11] = system: Streptococcus pyogenes JRS4; format: cell-based
# [12] = system: M. tuberculosis; format: cell-based, Mycobacterium tuberculosis
# [13] = system: E. coli; format: cell-based, Escherichia coli
# [14] = system: M. smegmatis LR222; test: Growth kinetics with Ga-PPIX; format: cell-based, Mycobacterium smegmatis; conditions: 1 μg/ml
# [15] = system: mice; test: Preliminary toxicity testing on animals; format: in vivo
# Experimental: To test for toxicity of MPs for mammalian cells, semiconfluent monolayers of four cell lines (MRC-5 primary human fibroblasts, Vero cells, MDCK cells and CaCO-2 cells) were incubated for 24 to 48 hours in the presence of 5, 25, 50, 250 and 400 μg/ml of Ga-PPIX dissolved in 0.02 M NaOH.
# Two mice were each injected intraperitoneally with 0.5 mg gallium protoporphyrin IX and observed for 7 days. […] The animals were sacrificed, and their internal organs were microscopically examined for signs of inflammation.
# [16] = system: Vero cells; test: Toxicity to mammalian cell monolayers; conditions: 0.5 mg in 1 mL DMEM; 24 hrs
smiles,measurement,setting,value
"C=CC1=C(C)C2=Cc3c(C=C)c(C)c4[n]3[Ga][n]3c(c(C)c(CCC(=O)O)c3=CC3=NC(=C4)C(C)=C3CCC(=O)O)=CC1=N2 [Ga-PPIX, Gallium (III) protoporphyrin IX chloride]",diameter (mm) of the inhibition zone,"[1]; K. oxytoca, disc ~50 μg MP",21 mm
same,sensitive strains / strains tested (inhibition zones larger or equal 20 mm),"[1]; Klebsiella oxytoca, 50 μg disc",1/1
same,diameter (mm) of the inhibition zone,"[2]; C. freundii, disc ~50 μg MP",22 mm
same,sensitive strains / strains tested (inhibition zones larger or equal 20 mm),"[2]; Citrobacter freundii, 50 μg disc",4/4
same,diameter (mm) of the inhibition zone,"[3]; E. aerogenes, disc ~50 μg MP",22 mm
same,sensitive strains / strains tested (inhibition zones larger or equal 20 mm),"[3]; Enterobacter aerogenes, 50 μg disc",1/1
same,diameter (mm) of the inhibition zone,[4],24 mm
same,diameter (mm) of the inhibition zone,[5],25 mm
same,diameter (mm) of the inhibition zone,[6],35 mm
same,diameter (mm) of the inhibition zone,[7],20 mm
same,diameter (mm) of the inhibition zone,[8],36 mm
same,Minimal inhibitory concentration (MIC),[9],0.4
same,antibacterial activity,[9],inhibitory
same,sensitivity of hemR mutant,[9],resistant to relatively high concentrations
same,"sensitivity of hemT, hemU, hemV mutants",[9],fully sensitive
same,MIC,[9]; in µg/mL,0.4
same,MIC,"[10]; B. subtilis 3G18, 20 to 24 hours (Table 5)",0.2 µg/mL
same,MIC,[10]; Bacillus subtilis (Table 4),< 0.1 µg/mL
same,sensitivity,[11],resistant
same,MIC,[12]; M. tuberculosis Rv (Table 5),4 µg/mL
same,sensitivity (preliminary experiments),[12]; pathogenic M. tuberculosis,sensitive
same,MIC,[13]; E. coli DH-5 alpha hemA (Table 6),> 10 µg/mL
same,sensitivity,"[13]; E. coli K-12 (hemPR+) wild type and hemA mutant, with delta-aminolevulinic acid",fully sensitive
same,TonB dependence of inhibition,[13]; E. coli TonB mutant overexpressing HemR,TonB activity is necessary
same,MIC,[13]; E. coli dh-5 alpha hemA(hemR+) (Table 6),< 0.1 µg/mL
same,MIC Ga-PPIX,"[13]; EC06 (MC1061, ΔccmABCDEFGH), NB",> 20 µg/mL
same,MIC Ga-PPIX,"[13]; EC06 (MC1061, ΔccmABCDEFGH), NBD[50 μM]",> 20 µg/mL
same,MIC Ga-PPIX,"[13]; GO103 (GR70N, ΔcydAB), NB",10 µg/mL
same,MIC Ga-PPIX,"[13]; GO103 (GR70N, ΔcydAB), NBD[50 μM]",6.4 µg/mL
same,MIC Ga-PPIX,"[13]; GP104 (GR70N, ΔcyoABCDE), NB",10 µg/mL
same,MIC Ga-PPIX,"[13]; GP104 (GR70N, ΔcyoABCDE), NBD[50 μM]",10 µg/mL
same,MIC Ga-PPIX,"[13]; GR70N w.t., NB",10 µg/mL
same,MIC Ga-PPIX,"[13]; GR70N w.t., NBD[50 μM]",10 µg/mL
same,MIC Ga-PPIX,"[13]; IR2885 (GO104 [phemR+]), NB",< 0.2 µg/mL
same,MIC Ga-PPIX,"[13]; IR2885 (GO104 [phemR+]), NBD[50 μM]",< 0.02 µg/mL
same,MIC Ga-PPIX,"[13]; IR2897 (GR70N [phemR+]), NB",> 10 µg/mL
same,MIC Ga-PPIX,"[13]; IR2897 (GR70N [phemR+]), NBD[50 μM]",< 0.1 µg/mL
same,MIC Ga-PPIX,"[13]; IR2898 (GO103 [phemR+]), NB",< 0.2 µg/mL
same,MIC Ga-PPIX,"[13]; IR2898 (GO103 [phemR+]), NBD[50 μM]",< 0.02 µg/mL
same,MIC Ga-PPIX,"[13]; IR2899 (MWC215 [phemR+]), NB",> 10 µg/mL
same,MIC Ga-PPIX,"[13]; IR2899 (MWC215 [phemR+]), NBD[50 μM]",< 0.1 µg/mL
same,MIC Ga-PPIX,"[13]; IR2976 (EC06 [phemR+]), NB",> 30 µg/mL
same,MIC Ga-PPIX,"[13]; IR2976 (EC06 [phemR+]), NBD[50 μM]",0.5 µg/mL
same,MIC Ga-PPIX,"[13]; MWC215 (GR70N, ndh), NB",10 µg/mL
same,MIC Ga-PPIX,"[13]; MWC215 (GR70N, ndh), NBD[50 μM]",10 µg/mL
same,higher MIC under iron-sufficient growth conditions,[13]; all other mutants,50 fold
same,sensitivity without an iron chelator,[13]; cytochrome cd and cyo single mutants,still sensitive
same,sensitivity concentration of HemR-plasmid strains,[13]; slight iron restriction (0.05 mM dipyridyl),less than 0.5 μg/ml
same,growth in presence of Ga-PPIX,[14],completely prevented growth
same,"behavior, eating habits, stress, general condition","[15]; 0.5 mg intraperitoneally, 7 days","No change in behavior, eating habits and/or apparent stress or general condition were recorded"
same,inflammation of internal organs,"[15]; 0.5 mg intraperitoneally, 7 days, microscopy",No visible indications of inflammation were observed
same,peracute or acute effect on health and behavior,[15]; single intraperitoneal dose of 25 mg/kg,does not cause any peracute or acute effect on the health and behavior of mice
same,cytotoxic and/or morphological changes,[16],No visible cytotoxic and/or morphological changes were observed
